# Patent US20230390220A1, “MONOAMINE OXIDASE BLOCKADE THERAPY FOR TREATING CANCER THROUGH REGULATING ANTITUMOR T CELL IMMUNITY” (THE REGENTS OF THE UNIVERSITY OF CALIFORNIA, priority 2020, published 2023)
# What was measured:
# [1] = test system: CD8 T cells; assay: In vitro mouse CD8 T cell activation with anti-CD3 (ELISA / flow cytometry); type: cell-based; settings: for IL-2 and IFN-γ production: Maoa-WT CD8 T cells, 4-day time course post anti-CD3, treatment 10 μM vs NT; for CD8 T cell hyperactivation (expression of CD25, Granzyme B, IL-2, IFN-γ): B6 wildtype CD8 T cells, anti-CD3, Phe 10 μM, Moc 200 μM, Clo 20 μM
# From the text: The coating and biotinylated antibodies for the detection of mouse IFN-γ (coating antibody, cat #554424; biotinylated detection antibody, cat #554426) and IL-2 (coating antibody, cat #551216; biotinylated detection antibody, cat #554410) were purchased from BD Biosciences. The streptavidin-HRP conjugate (Cat #18410051) was purchased from Invitrogen. Mouse IFN-γ (Cat #575309) and IL-2 (Cat #575409) standards were purchased from BioLegend. The 3,3′,5,5′-Tetramethylbenzidine (TMB, cat #51200048) substrate was purchased from KPL.
# [2] = test system: 5-HTRs on CD8 T cells; assay: Western blot of 5-HTR (MAPK) and TCR signaling in CD8 T cells; type: cell-based, mouse; settings: anti-CD3 2 days, asenapine 10 μM, restimulated 20 minutes
# Procedure: CD8 T cells purified from Maoa-WT and Maoa-KO mice were cultured in vitro in a 24-well plate at 0.5×10^6 cells per well for 2 days, in the presence of plate-bound anti-mouse CD3ε (5 μg/ml), with or without asenapine treatment (10 μM). Cells were then rested on ice for 2 hours and restimulated with plate-bound anti-mouse CD3ε (5 μg/ml) for 20 minutes. Total protein was extracted using a lysis buffer containing 20 mM HEPES (pH 7.6), 150 mM NaCl, 1 mM EDTA, 1% TritonX-100, and protease/phosphatase inhibitor cocktail (Cat #5872S, Cell Signaling). Nuclear protein was extracted using a Nuclear Protein Extraction Kit (Cat #P178833, Thermo Fisher Scientific). Protein concentration was measured a BCA Assay Kit (Cat #23228 and Cat #1859078, Thermo Fisher Scientific). Equal amounts of protein were resolved on a 10% SDS-PAGE gel and then transferred to a PVDF membrane by electrophoresis. MAO-A antibody was purchased from Abcam (Cat #ab126751, Clone EPR7101). […] Signals were visualized with autoradiography using an ECL system (Cat #RPN2232, Thermo Fisher Scientific). The data were analyzed using an Image Lab software (Bio-Rad).
# [3] = test system: B16-OVA melanoma; assay: Syngeneic B16-OVA melanoma tumor model, tumor growth; type: in vivo, mouse; settings: for Tumor growth, B16-OVA melanoma prevention model: i.p., phenelzine 30 mg/kg/day, moclobimide 50 mg/kg/day, clorgyline 50 mg/kg/day
# Procedure: (§1) B16-OVA melanoma cells (1×10^6 per animal) or MC38 colon cancer cells (3×10^5 per animal) were subcutaneously (s.c.) injected into experimental mice to form solid tumors. In some experiments, mice received intraperitoneal (i.p.) injection of MAOIs (i.e., phenelzine, 30 mg/kg/day; moclobimide, 50 mg/kg/day; or clorgyline, 50 mg/kg/day) to block MAO-A activity. In some experiments, mice received i.p. injection of anti-mouse CD8α antibodies (200 μg/animal/bi-weekly) to deplete CD8 T cells; mice received i.p. injection of isotype antibodies were included as controls. In some experiments, mice received i.p. injection of anti-mouse PD-1 antibodies (300 μg/animal/bi-weekly) to block PD-1; mice received i.p. injection of isotype antibodies were included as controls.
# (§2) During an experiment, tumor growth was monitored twice per week by measuring tumor size using a Fisherbrand™ Traceable™ digital caliper (Thermo Fisher Scientific); tumor volumes were calculated by formula ½×L×W^2. At the end of an experiment, tumor-infiltrating immune cells were isolated for analysis using QPCR, flow cytometry, and/or scRNASeq. In some experiments, sera were also collected for serotonin measurement.
# [4] = test system: Maoa-WT CD8 T cells; settings: 24-hour post anti-CD3 stimulation, phenelzine 10 μM vs NT, ELISA
# Procedure: Spleen and lymph node cells were harvested from Maoa-KO or Maoa-WT (B6 wildtype) mice and subjected to MACS using a Mouse CD8 T Cell Isolation Kit (Cat #120117044, Miltenyi Biotec) following the manufacturer's instructions. Purified mouse CD8 T cells were cultured in vitro in C10 medium, in a 24-well plate at 0.5×10^6 cells per ml medium per well, in the presence of plate-bound anti-mouse CD3ε (5 μg/ml) for up to 4 days. At indicated time points, cells were collected for flow cytometry analysis of surface marker expression and intracellular effector molecule production, and for QPCR analysis of mRNA expression; cell culture supernatants were collected for ELISA analysis of effector cytokine production. In experiments studying serotonin signaling, cells were cultured in C10 medium made of serotonin-depleted FBS that was pretreated overnight with charcoal-dextran (Cat #C6241, Sigma; 1 gram per 50 ml FBS). L-Ascorbic acid (Cat #A4403, Sigma; 100 μM) was added to C10 medium to stabilize T cell-produced or supplemented serotonin. […] In some experiments, cells were supplemented with exogenous serotonin (SER, 10 μM) to stimulate serotonin signaling. In some experiments, cells were treated with serotonin receptor antagonist asenapine (ASE, 10 μM) to block serotonin receptor signaling. […] The absorbance at 450 nm was measured using an Infinite M1000 microplate reader (Tecan).
# [5] = test system: B16-OVA melanoma; settings: Maoa-WT mice
# Procedure: as §1, §2
# HPLC was used to measure intratumoral and serum serotonin levels as previously described (47, 48). Briefly, tumors and sera were collected from experimental mice at indicated time points, and were snap-frozen using liquid nitrogen. Frozen samples were thawed and homogenized using methanol and acetonitrile by vortexing. Homogenized samples were centrifuged, and supernatants were collected to new tubes and evaporated under a stream of argon. Dried sample pellets were then reconstituted in HPLC running buffer and were ready for analysis. Serotonin concentration was quantified using a C 18 column by reverse phase HPLC (System Gold 166P detector, Beckman Coulter)
# [6] = test system: tumor-infiltrating CD8 T cells; settings: B16-OVA, day 17, phenelzine vs NT, FACS
# Procedure: as §1
# [7] = test system: MC38 colon cancer
# Procedure: as §1, §2
# [8] = test system: A375-A2-ESO-FG human melanoma cells
# Procedure: The A375-A2-ESO-FG human melanoma cells (10×10^6 cells per animal) were s.c. injected into NSG mice to form solid tumors. In some experiments, mice received phenelzine treatment through i.p. injection (30 mg/kg/day). In some experiments, mice received adoptive transfer of ESO-T cells through r.o. injection (4×10^6 cells per recipient mouse). Prior to ESO-T cell adoptive transfer, recipient mice were preconditioned with total body irradiation (100 rads). During an experiment, tumor growth was monitored twice per week by measuring tumor size using a Fisherbrand™ Traceable™ digital caliper; tumor volumes were calculated by formula ½×L×W^2.
# [9] = B6 wildtype mice, combination study with anti-PD-1 (Iso, Phe+Iso, αPD-1, Phe+αPD-1)
smiles,measurement,setting,value
CN1CC2c3ccccc3Oc3ccc(Cl)cc3C2C1 (stereo not drawn) [asenapine],IL-2 and IFN-γ production difference between Maoa-WT and Maoa-KO CD8 T cells,"[1]; day 2 post anti-CD3 stimulation, asenapine 10 μM, ELISA",eliminated the cytokine production difference between Maoa-WT and Maoa-KO CD8 T cells
same,"Enhancement of MAPK signaling (ERK phosphorylation) and TCR downstream signaling (NFAT, NF-κB, c-Jun) in Maoa-KO T cells",[2],largely abrogated
NCCc1c[nH]c2ccc(O)cc12 [serotonin],IL-2 and IFN-γ production,[1]; ELISA,T cell hyperactivation and elevated production of IL-2 and IFN-γ
"O=C(NCCN1CCOCC1)c1ccc(Cl)cc1 [mocolobemide, moclobemide]","CD8 T cell hyperactivation (expression of CD25, Granzyme B, IL-2, IFN-γ)",[1],efficiently induced CD8 T cell hyperactivation
same,"Tumor growth, B16-OVA melanoma prevention model",[3]; B6 wildtype mice,dramatically suppressed tumor growth
NNCCc1ccccc1 [phenelzine],Serotonin levels in CD8 T cell cultures,[4],recapitulated the serotonin overproduction phenotype of Maoa-KO CD8 T cells
same,Phenelzine treatment-induced accumulation of serotonin in the tumor after depletion of CD8 T cells,"[5]; anti-CD8 antibody depletion, day 14, HPLC",largely abolished
same,Serum serotonin levels,"[5]; day 14, with or without phenelzine and anti-CD8, HPLC",no significant changes in serotonin levels in serum
same,Intratumoral serotonin levels,"[5]; day 14 post tumor challenge, phenelzine vs NT, HPLC",increased levels of serotonin
same,Expression of exhaustion markers (PD-1) on tumor-infiltrating CD8 T cells,[6],reduced expression of exhaustion markers
same,Production of effector molecules (IFN-γ and Granzyme B) by tumor-infiltrating CD8 T cells,[6],enhanced production of effector molecules
same,"CD8 T cell hyperactivation (expression of CD25, Granzyme B, IL-2, IFN-γ)",[1],efficiently induced CD8 T cell hyperactivation
same,IL-2 and IFN-γ production,[1]; ELISA,increased production of the effector cytokines IL-2 and IFN-γ
same,B16-OVA tumor growth,[3]; [9],significantly suppressed tumor growth at a level comparable to the anti-PD-1 treatment
same,"Tumor growth, B16-OVA melanoma prevention model",[3]; B6 wildtype mice,dramatically suppressed tumor growth
same,"Tumor progression, pre-established B16-OVA melanoma solid tumors","[3]; B6 wildtype mice, phenelzine vs NT",effectively suppressed tumor progression
same,B16-OVA tumor growth in immunodeficient NSG mice,"[3]; NSG mice, phenelzine vs NT",did not suppress the growth
same,Tumor suppression with CD8 T cells depleted,"[3]; tumor-bearing B6 wildtype mice, phenelzine + anti-CD8",no tumor suppression was observed
same,MC38 tumor growth,[7]; [9],completely suppressed tumor growth as effectively as the anti-PD-1 treatment
same,MC38 tumor growth in immunodeficient NSG mice,"[7]; NSG mice, phenelzine vs NT",did not suppress the growth
same,A375-A2-ESO-FG tumor growth without ESO-T cell adoptive transfer,"[8]; NSG mice without ESO-T cells, phenelzine vs NT",no tumor suppression was observed
same,A375-A2-ESO-FG tumor growth with ESO-T cell adoptive transfer,"[8]; NSG mice, ESO-T cells, phenelzine i.p. 30 mg/kg/day vs NT",effectively suppressed tumor growth
C#CCN(C)CCCOc1ccc(Cl)cc1Cl [clorgyline],"CD8 T cell hyperactivation (expression of CD25, Granzyme B, IL-2, IFN-γ)",[1],efficiently induced CD8 T cell hyperactivation
same,"Tumor growth, B16-OVA melanoma prevention model",[3]; B6 wildtype mice,dramatically suppressed tumor growth
